The source of these data is the NIST ThermoML archive (doi:10.1016/j.jct.2018.05.003).

Numbers after ± are expanded uncertainties.

Experiment in one series: not given
The settings on record: Crystal; visual observation.
With `O=C(C(=O)c1ccccc1)c1ccccc1` [1,2-diphenylethanedione], the Normal melting temperature is 95.4 ± 1.1 °C. On the same count and under the same terms, the same measure for `O=C(O)c1cc([N+](=O)[O-])ccc1Cl` [2-chloro-5-nitrobenzoic acid]: 167.0 ± 1.1 °C. For `O=C(O)c1ccccc1O` [2-hydroxybenzoic acid], the Normal melting temperature turned out to be 159.6 ± 1.1 °C. The same measure, in the same setting: the same measure for `Cc1cccc(C(=O)O)c1` [3-methylbenzoic acid]: 109.2 ± 0.9 °C. The same measure, in the same setting: to `O=C(O)c1cccc([N+](=O)[O-])c1` [3-nitrobenzoic acid] belongs 141.6 ± 0.9 °C; to `O=C(O)c1ccc(Cl)c([N+](=O)[O-])c1` [4-chloro-3-nitrobenzoic acid], 183.2 ± 1.1 °C. With `c1ccc2c(c1)Nc1ccccc1S2` [10H-phenothiazine], the Normal melting temperature came out at 184.8 ± 0.7 °C. Same read-out and setting: to `O=C(O)c1ccccc1` [benzoic acid] belongs 122.5 ± 0.9 °C. `O=S(=O)(c1ccccc1)c1ccccc1` [diphenyl sulfone]: the Normal melting temperature was determined as 125.1 ± 0.9 °C.

The nature of another series: activity coefficient (dimensionless); of the first substance listed, at infinite dilution; xn = mol fraction of the nth substance listed. The note with it: 298.15 K; 101.33 kPa; Liquid; Chromatography; x1 = 0.
`CC(Cl)CCl` (stereo unspecified) [1,2-dichloropropane] + CCCCCOC(C)=O: the activity coefficient was found to be 0.61 ± 0.03. Same read-out and setting: the same measure for `Cc1cccc(C)c1` [1,3-dimethylbenzene] + CCCCCOC(C)=O: 0.9 ± 0.03. Still for that read-out and setting: the same measure for `Cc1ccc(C)cc1` [1,4-dimethylbenzene] + CCCCCOC(C)=O: 0.92 ± 0.03; for `C1COCCO1` [1,4-dioxane] + CCCCCOC(C)=O: 0.91 ± 0.03. In the case of `C=CCCCCC=C` [1,7-octadiene] + CCCCCOC(C)=O, the activity coefficient is 1.14 ± 0.05. Still for that read-out and setting: to `CCCCCl` [1-chlorobutane] + CCCCCOC(C)=O belongs 0.84 ± 0.03; to `C=CCCCCC` [1-heptene] + CCCCCOC(C)=O, 1.35 ± 0.04. As to `C#CCCCCCC` [1-octyne] + CCCCCOC(C)=O, the activity coefficient came to 0.85 ± 0.03. Regarding `CC(C)Br` [2-bromopropane] + CCCCCOC(C)=O, the activity coefficient was found to be 0.82 ± 0.03. As to `CC(C)=O` [acetone] + CCCCCOC(C)=O, the activity coefficient is 1.19 ± 0.05.

Consider `CC#N` [acetonitrile] + CCCCCOC(C)=O, for which the activity coefficient is 1.69 ± 0.05. The same measure, in the same setting: the same measure for `c1ccccc1` [benzene] + CCCCCOC(C)=O: 0.73 ± 0.03; for `Brc1ccccc1` [bromobenzene] + CCCCCOC(C)=O: 0.78 ± 0.05. Still for that read-out and setting: the same measure for `C1CCCCC1` [cyclohexane] + CCCCCOC(C)=O: 1.51 ± 0.05. For the molecule `C1=CCCCC1` [cyclohexene] + CCCCCOC(C)=O, the activity coefficient was 1.16 ± 0.03. Take `CCCCCCCCCC` [decane] + CCCCCOC(C)=O: the activity coefficient amounted to 2.5 ± 0.13. Still for that read-out and setting: to `CCO` [ethanol] + CCCCCOC(C)=O belongs 2.97 ± 0.12. On the same count and under the same terms, the same measure for `CCOC(C)=O` [ethyl acetate] + CCCCCOC(C)=O: 0.96 ± 0.03; for `CCc1ccccc1` [ethylbenzene] + CCCCCOC(C)=O: 0.98 ± 0.04. Same read-out and setting: to `Fc1ccccc1` [fluorobenzene] + CCCCCOC(C)=O belongs 0.61 ± 0.03; to `CCCCCCC` [heptane] + CCCCCOC(C)=O, 1.9 ± 0.1. For the molecule `C=CCCCC` [hex-1-ene] + CCCCCOC(C)=O, the activity coefficient came out at 1.22 ± 0.03. With `CCCCCC` [hexane] + CCCCCOC(C)=O, the activity coefficient is 1.74 ± 0.1. On the same count and under the same terms, the same measure for `C[N+](=O)[O-]` [nitromethane] + CCCCCOC(C)=O: 1.28 ± 0.05; for `CCCCCCCCC` [nonane] + CCCCCOC(C)=O: 2.17 ± 0.14. Same read-out and setting: the same measure for `CCCCCCCC` [octane] + CCCCCOC(C)=O: 2.02 ± 0.09; for `CCCO` [propan-1-ol] + CCCCCOC(C)=O: 2.43 ± 0.11. As to `CC(C)O` [propan-2-ol] + CCCCCOC(C)=O, the activity coefficient turned out to be 2.86 ± 0.11. As to `CCCc1ccccc1` [propylbenzene] + CCCCCOC(C)=O, the activity coefficient stood at 1.02 ± 0.06. The same measure, in the same setting: to `C1CCOC1` [tetrahydrofuran] + CCCCCOC(C)=O belongs 0.8 ± 0.04. Consider `Cc1ccccc1` [toluene] + CCCCCOC(C)=O, for which the activity coefficient stood at 0.86 ± 0.04. Still for that read-out and setting: the same measure for `ClC(Cl)Cl` [trichloromethane] + CCCCCOC(C)=O: 0.27 ± 0.03.
